Earlier results, collected in publication PMC9881854 (bioRxiv, 2023).

Tested on: mTOR

binding of rapamycin by itself to mTOR: weak micromolar binder
Structure (SMILES): CO[C@H]1C[C@@H]2CC[C@@H](C)[C@@](O)(O2)C(=O)C(=O)N2CCCC[C@H]2C(=O)O[C@H]([C@H](C)C[C@@H]2CC[C@@H](O)[C@H](OC)C2)CC(=O)[C@H](C)/C=C(\C)[C@@H](O)[C@@H](OC)C(=O)[C@H](C)C[C@H](C)/C=C/C=C/C=C/1C [rapamycin]
